Results from patent EP4717277A1, “USE OF DRUG CONJUGATE IN TREATING TUMOR DISEASE AND METHOD THEREFOR” (Sichuan Kelun-Biotech Biopharmaceutical Co., Ltd., priority 2023, dated 2024).

Experiments:
[1] = Toxicokinetic behavior of the conjugate and released toxin molecules after repeated intravenous dosing; assay type: in vivo, cynomolgus monkeys; settings: after the last dosing with 50 mg/kg conjugate A
Method: The cynomolgus monkeys were divided into four groups according to different doses: control group, 25 mg/kg dose group, 50 mg/kg dose group and 75 mg/kg dose group, with 5 males and 5 females in each group. […] For the monkeys in each group, blood samples were collected before and immediately after, and 4 h, 24 h, 48 h, 96 h and 168 h after the first and last dosing (0-1 min after the end of dosing), 1 h before and immediately after the second and third dosing (0-1 min after the end of dosing), and 336 h after the last dosing.

[2] = Clinical trial, pharmacokinetic study of the dose-escalation cohort; assay type: in vivo, human; settings: patients, first 4-week cycle
Method: Based on the patient's weight, a dose escalation design with five dose cohorts of 2, 4, 6, 9 and 12 mg/kg was employed, which were injected intravenously once every two weeks, every 28 days as a cycle, and were given every cycle until the disease progressed or an intolerable toxic reaction occurred. The toxicity of all planned dose groups and some intermediate dose groups was evaluated by BLRM. Based on the model analysis, the sponsor and the researcher jointly decided the decision of dose increase.

**Q.** Which “exposure to the toxin molecules” value ([1]; female monkeys) does the source give for `CC[C@@]1(O)C(=O)OCc2c1cc1n(c2=O)Cc2c-1nc1ccccc1c2CCN(C(C)C)S(C)(=O)=O` [toxins] here?
**A.** 3850 ng·h/mL

**Q.** And the “exposure to the toxin molecules” value ([1]; male monkeys)?
**A.** 5860 ng·h/mL

**Q.** And the “plasma exposure of free payload (area under the curve (AUC)) relative to that of Conjugate A” value [2]?
**A.** ~5%

**Q.** What about the “plasma exposure of free payload (maximum plasma concentration (Cmax)) relative to that of Conjugate A” value [2] of the same molecule?
**A.** approximately 6%
